The values that follow come from ChEMBL document CHEMBL1156672, “Selectivity criterion for pyrazolo[3,4-b]pyrid[az]ine derivatives as GSK-3 inhibitors: CoMFA and molecular docking studies” (Eur J Med Chem, 2008).

The target in this test is Cyclin-dependent kinase 2 (Homo sapiens, UniProt P24941).

On to `O=C(NC1=NNC2=CC=CC21)C1CC1` (stereo unspecified), for which half-maximal inhibition (IC50) was put at 5 nM.
